In PubChem BioAssay AID1963864 (Molecular Pharmacology Branch, DTP, NCI, 2024):

System: KRAS PDC multicell spheroid viability
Assay: Anticancer human tumor 521955-158-R6-J3-PDC patient-derived pancreatic carcinoma cell line growth inhibition [KRAS2]
Details: for IC50: curve of first compound; for viability, T/C: stronger effect = lower value
Summary of the method: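 Combination screen of spheroid viability in tumor-cell co-cultures with endothelial (HUVEC) and mesenchymal stem cell stroma. Each agent was tested in half-log dilutions, topping at clinical Cmax or at 10 microM without a known Cmax.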

[1] = second compound 0.1 µM, first compound 0.0316 µM
[2] = second compound 0.1 µM, first compound 0.1 µM
[3] = second compound 0.1 µM, first compound 0.316 µM
[4] = second compound 0.1 µM, first compound 1 µM
[5] = second compound 0.1 µM, first compound 3.16 µM
[6] = second compound 0.316 µM, first compound 0.0316 µM
[7] = second compound 0.316 µM, first compound 0.1 µM
[8] = second compound 0.316 µM, first compound 0.316 µM
[9] = second compound 0.316 µM, first compound 1 µM
[10] = second compound 0.316 µM, first compound 3.16 µM
[11] = second compound 1 µM, first compound 0.0316 µM
[12] = second compound 1 µM, first compound 0.1 µM
[13] = second compound 1 µM, first compound 0.316 µM
[14] = second compound 1 µM, first compound 1 µM
[15] = second compound 1 µM, first compound 3.16 µM
[16] = second compound 3.16 µM, first compound 0.0316 µM
[17] = second compound 3.16 µM, first compound 0.1 µM
[18] = second compound 3.16 µM, first compound 0.316 µM
[19] = second compound 3.16 µM, first compound 1 µM
[20] = second compound 3.16 µM, first compound 3.16 µM
[21] = second compound 10 µM, first compound 0.0316 µM
[22] = second compound 10 µM, first compound 0.1 µM
[23] = second compound 10 µM, first compound 0.316 µM
[24] = second compound 10 µM, first compound 1 µM
[25] = second compound 10 µM, first compound 3.16 µM
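Note: drug exposure lasted seven days.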
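Throughout, for viability, T/C: 100% = DMSO vehicle wells and lower means fewer viable cells.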

Compound	IC50 (second compound 0.1 µM)	IC50 (second compound 0.316 µM)	IC50 (second compound 1 µM)	IC50 (second compound 3.16 µM)	IC50 (second compound 10 µM)	viability, T/C [1]	viability, T/C [2]	viability, T/C [3]	viability, T/C [4]	viability, T/C [5]	viability, T/C [6]	viability, T/C [7]	viability, T/C [8]	viability, T/C [9]	viability, T/C [10]	viability, T/C [11]	viability, T/C [12]	viability, T/C [13]	viability, T/C [14]	viability, T/C [15]	also measured
Cn1nccc1Nc1nccc(-c2cc3c(s2)C(C)(C)N(CCN2CCOCC2)C3=O)n1 + CC1OCC2(CCN(c3cnc(Sc4ccnc(N)c4Cl)c(N)n3)CC2)C1N	> 10 µM	> 10 µM	7.94 µM	2.83 µM	1.51 µM	89.8%	93.9%	94.2%	81.2%	68.4%	93.9%	95.5%	90.3%	67.4%	63.7%	88.4%	98%	82.2%	72.2%	53.7%	viability, T/C (second compound 0.1 µM, first compound 10 µM): 62.6%; viability, T/C (second compound 0.316 µM, first compound 10 µM): 57.1%; viability, T/C (second compound 1 µM, first compound 10 µM): 49.2%; viability, T/C [16]: 82.1%; viability, T/C [17]: 88.4%; viability, T/C [18]: 72.7%; viability, T/C [19]: 59.9%; viability, T/C [20]: 47.8%; viability, T/C (second compound 3.16 µM, first compound 10 µM): 47.7%; viability, T/C [21]: 93.2%; viability, T/C [22]: 86.6%; viability, T/C [23]: 71.9%; viability, T/C [24]: 53.6%; viability, T/C [25]: 43.4%; viability, T/C (second compound 10 µM, first compound 10 µM): 39.5%
CC(=O)OC12COC1CC(O)C1(C)C(=O)C(O)C3=C(C)C(OC(=O)C(O)C(NC(=O)OC(C)(C)C)c4ccccc4)CC(O)(C(OC(=O)c4ccccc4)C21)C3(C)C (stereo not given) + CNCc1ccccc1-c1csc(C(C)Nc2nc(C)nc3cc(OC)c(OC)cc23)c1	> 3.16 µM	> 3.16 µM	> 3.16 µM	< 0.01 µM	< 0.01 µM	67.6%	72.9%	82.2%	85.6%	96.1%	64.7%	69.9%	60.6%	92%	93.7%	70.6%	73.8%	83.6%	94.8%	98.1%	viability, T/C (second compound 0.1 µM, first compound 0.01 µM): 68.7%; viability, T/C (second compound 0.316 µM, first compound 0.01 µM): 70.4%; viability, T/C (second compound 1 µM, first compound 0.01 µM): 75.3%; viability, T/C (second compound 3.16 µM, first compound 0.01 µM): 0.42%; viability, T/C [16]: 72.7%; viability, T/C [17]: 0.72%; viability, T/C [18]: 1.02%; viability, T/C [19]: 3.04%; viability, T/C [20]: 130%; viability, T/C (second compound 10 µM, first compound 0.01 µM): 1.35%; viability, T/C [21]: 0.32%; viability, T/C [22]: 0.53%; viability, T/C [23]: 0.88%; viability, T/C [24]: 0.31%; viability, T/C [25]: 0.89%
